According to ChEMBL document CHEMBL1201862, “PubChem BioAssay data set” (2004):
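Each compound was tested at five concentrations against cells in 96-well plates for 48 hours. The concentration for 50% growth inhibition is given as GI50.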 The source made the active and inactive calls. Rule as the data show it: active = GI50 up to about 1.1 µM and inactive = higher.

How the values were obtained:
Experiment in all cases: NCI tumour cell line growth inhibition, 48 h
[1] = tested on: 786-0
[2] = tested on: A498
[3] = tested on: ACHN
[4] = tested on: CAKI-1
[5] = tested on: CCRF-CEM
[6] = tested on: COLO 205
[7] = tested on: DLD-1
[8] = tested on: DMS-114
[9] = tested on: DMS-273
[10] = tested on: EKVX
[11] = tested on: HCC 2998
[12] = tested on: HCT-15
[13] = tested on: HL-60
[14] = tested on: HOP-18
[15] = tested on: HOP-62
[16] = tested on: HT-29
[17] = tested on: IGROV-1
[18] = tested on: K562
[19] = tested on: KM-20L2
[20] = tested on: KM12
[21] = tested on: LOX IMVI
[22] = tested on: LXFL 529
[23] = tested on: M14
[24] = tested on: M19-MEL
[25] = tested on: MOLT-4
[26] = tested on: Malme-3M
[27] = tested on: NCI-H226
[28] = tested on: NCI-H23
[29] = tested on: NCI-H460
[30] = tested on: OVCAR-4
[31] = tested on: OVCAR-5
[32] = tested on: OVCAR-8
[33] = tested on: RPMI-8226
[34] = tested on: SF-268
[35] = tested on: SF-295
[36] = tested on: SF-539
[37] = tested on: SK-MEL-28
[38] = tested on: SK-MEL-5
[39] = tested on: SN12C
[40] = tested on: SNB-19
[41] = tested on: SNB-75
[42] = tested on: SNB-78
[43] = tested on: SW-620
[44] = tested on: TK-10
[45] = tested on: UACC-257
[46] = tested on: UACC-62
[47] = tested on: UO-31
[48] = tested on: XF498
[49] = tested on: A549
[50] = tested on: HCT-116
[51] = tested on: HOP-92
[52] = tested on: NCI-H522
[53] = tested on: OVCAR-3
[54] = tested on: RXF 393
[55] = tested on: SK-MEL-2
[56] = tested on: SK-OV-3
[57] = tested on: SR
[58] = tested on: U-251

Q: How did the GI50 [1] turn out when `CC1=C2N3C[C@@H](n4c(=O)n(C)c(=O)n43)C23CCC1n1c(=O)n(C)c(=O)n13` was run?
A: 35.6 µM (inactive)

Q: And the GI50 [2]?
A: > 100 µM (inactive)

Q: And the GI50 [3]?
A: > 100 µM (inactive)

Q: And the GI50 [4]?
A: > 100 µM (inactive)

Q: And the GI50 [5]?
A: > 100 µM (inactive)

Q: What about the GI50 [6] of the same compound?
A: 48 µM (inactive)

Q: What about the GI50 [7] of the same compound?
A: 69.2 µM (inactive)

Q: What about the GI50 [8] of the same compound?
A: 30.8 µM (inactive)

Q: And the GI50 [9]?
A: 38.6 µM (inactive)

Q: What about the GI50 [10] of the same compound?
A: > 100 µM (inactive)

Q: And the GI50 [11]?
A: 7.85 µM (inactive)

Q: And the GI50 [12]?
A: 24.7 µM

Q: And the GI50 [13]?
A: > 100 µM (inactive)

Q: What about the GI50 [14] of the same compound?
A: > 100 µM (inactive)

Q: What about the GI50 [15] of the same compound?
A: > 100 µM (inactive)

Q: What about the GI50 [16] of the same compound?
A: > 100 µM (inactive)

Q: What about the GI50 [17] of the same compound?
A: > 100 µM (inactive)

Q: What about the GI50 [18] of the same compound?
A: 61 µM (inactive)

Q: And the GI50 [19]?
A: > 100 µM (inactive)

Q: What about the GI50 [20] of the same compound?
A: > 100 µM (inactive)

Q: And the GI50 [21]?
A: 52.8 µM (inactive)

Q: What about the GI50 [22] of the same compound?
A: 85.1 µM (inactive)

Q: And the GI50 [23]?
A: > 100 µM (inactive)

Q: And the GI50 [24]?
A: > 100 µM (inactive)

Q: And the GI50 [25]?
A: > 100 µM (inactive)

Q: What about the GI50 [26] of the same compound?
A: > 100 µM (inactive)

Q: What about the GI50 [27] of the same compound?
A: > 100 µM (inactive)

Q: And the GI50 [28]?
A: > 100 µM (inactive)

Q: What about the GI50 [29] of the same compound?
A: > 100 µM (inactive)

Q: And the GI50 [30]?
A: > 100 µM (inactive)

Q: What about the GI50 [31] of the same compound?
A: > 100 µM (inactive)

Q: What about the GI50 [32] of the same compound?
A: > 100 µM (inactive)

Q: And the GI50 [33]?
A: 42.7 µM (inactive)

Q: What about the GI50 [34] of the same compound?
A: > 100 µM (inactive)

Q: And the GI50 [35]?
A: > 100 µM (inactive)

Q: What about the GI50 [36] of the same compound?
A: > 100 µM (inactive)

Q: What about the GI50 [37] of the same compound?
A: > 100 µM (inactive)

Q: What about the GI50 [38] of the same compound?
A: > 100 µM (inactive)

Q: What about the GI50 [39] of the same compound?
A: > 100 µM (inactive)

Q: And the GI50 [40]?
A: > 100 µM (inactive)

Q: And the GI50 [41]?
A: > 100 µM (inactive)

Q: And the GI50 [42]?
A: > 100 µM (inactive)

Q: And the GI50 [43]?
A: 21.9 µM (inactive)

Q: And the GI50 [44]?
A: > 100 µM (inactive)

Q: And the GI50 [45]?
A: > 100 µM (inactive)

Q: And the GI50 [46]?
A: > 100 µM (inactive)

Q: And the GI50 [47]?
A: > 100 µM (inactive)

Q: What about the GI50 [48] of the same compound?
A: > 100 µM (inactive)

Q: `Nn1c(CCCl)nc2c(Br)cc(Br)cc2c1=O` was tested. Which GI50 [1] did it give?
A: 27.7 µM (inactive)

Q: And the GI50 [2]?
A: 35.7 µM (inactive)

Q: And the GI50 [49]?
A: 43.7 µM (inactive)

Q: What about the GI50 [3] of the same compound?
A: 22.9 µM (inactive)

Q: What about the GI50 [4] of the same compound?
A: 30.7 µM (inactive)

Q: What about the GI50 [5] of the same compound?
A: 8.2 µM (inactive)

Q: And the GI50 [6]?
A: 23.9 µM (inactive)

Q: What about the GI50 [7] of the same compound?
A: 26.8 µM (inactive)

Q: And the GI50 [8]?
A: 22.5 µM (inactive)

Q: And the GI50 [9]?
A: 30.3 µM (inactive)

Q: What about the GI50 [10] of the same compound?
A: 29.8 µM (inactive)

Q: And the GI50 [11]?
A: 40.2 µM (inactive)

Q: What about the GI50 [50] of the same compound?
A: 25.3 µM (inactive)

Q: What about the GI50 [12] of the same compound?
A: 22.1 µM

Q: What about the GI50 [13] of the same compound?
A: 2.77 µM (inactive)

Q: And the GI50 [14]?
A: 33.3 µM (inactive)

Q: And the GI50 [15]?
A: 26.8 µM (inactive)

Q: And the GI50 [51]?
A: 33 µM (inactive)

Q: What about the GI50 [16] of the same compound?
A: 32.7 µM (inactive)

Q: And the GI50 [17]?
A: 21 µM (inactive)

Q: What about the GI50 [18] of the same compound?
A: 13.2 µM (inactive)

Q: What about the GI50 [19] of the same compound?
A: 26 µM (inactive)

Q: And the GI50 [20]?
A: 18.7 µM (inactive)

Q: What about the GI50 [21] of the same compound?
A: 25.5 µM (inactive)

Q: And the GI50 [22]?
A: 24.7 µM (inactive)

Q: What about the GI50 [23] of the same compound?
A: 30.3 µM (inactive)

Q: And the GI50 [24]?
A: 32.1 µM (inactive)

Q: What about the GI50 [25] of the same compound?
A: 22.7 µM (inactive)

Q: What about the GI50 [26] of the same compound?
A: > 69.5 µM (inactive)

Q: And the GI50 [27]?
A: 28.5 µM (inactive)

Q: And the GI50 [28]?
A: 24 µM (inactive)

Q: What about the GI50 [29] of the same compound?
A: 25.3 µM (inactive)

Q: And the GI50 [52]?
A: 15.9 µM (inactive)

Q: What about the GI50 [53] of the same compound?
A: 9.62 µM (inactive)

Q: What about the GI50 [30] of the same compound?
A: 19.1 µM (inactive)

Q: What about the GI50 [31] of the same compound?
A: 30.1 µM (inactive)

Q: And the GI50 [32]?
A: 41.5 µM (inactive)

Q: What about the GI50 [33] of the same compound?
A: 24.4 µM (inactive)

Q: What about the GI50 [54] of the same compound?
A: 36.1 µM (inactive)

Q: What about the GI50 [34] of the same compound?
A: 37.1 µM (inactive)

Q: And the GI50 [35]?
A: 31.7 µM (inactive)

Q: What about the GI50 [36] of the same compound?
A: 40.7 µM (inactive)

Q: What about the GI50 [37] of the same compound?
A: 37.2 µM (inactive)

Q: And the GI50 [55]?
A: 33.1 µM (inactive)

Q: And the GI50 [38]?
A: 17.3 µM (inactive)

Q: What about the GI50 [56] of the same compound?
A: 33.1 µM (inactive)

Q: What about the GI50 [39] of the same compound?
A: 30.8 µM (inactive)

Q: What about the GI50 [40] of the same compound?
A: 51.9 µM (inactive)

Q: What about the GI50 [41] of the same compound?
A: 27.8 µM (inactive)

Q: What about the GI50 [42] of the same compound?
A: 34 µM (inactive)

Q: And the GI50 [57]?
A: 20.3 µM (inactive)

Q: What about the GI50 [43] of the same compound?
A: 20.5 µM (inactive)

Q: And the GI50 [44]?
A: 34.3 µM (inactive)

Q: What about the GI50 [58] of the same compound?
A: 23.1 µM (inactive)

Q: What about the GI50 [45] of the same compound?
A: 34.9 µM (inactive)

Q: What about the GI50 [46] of the same compound?
A: 31.9 µM (inactive)

Q: And the GI50 [47]?
A: 25.1 µM (inactive)

Q: And the GI50 [48]?
A: 20.6 µM (inactive)
